For orientation: IC50 means the concentration at which inhibition is half-maximal.

The text below walks through data of patent US20250034167A1, “HETEROCYCLIC COMPOUNDS AND METHODS OF USE” (AMGEN INC., priority 2021, published 2025).

Where two headings read alike, the source gives them in different places. Where only a bound is given, the exact number is not on record here.

The test system of assay [1] is Phosphorylation of ERK1/2 in AsPC-1 cells. Description: Phospho-ERK1/2 MSD Assay. The class given is cell-based. Here is the method: Sixteen hours prior to compound treatment, AsPC-1 cells were seeded in 96-well cell culture plates at a density of 25,000 cells/well and incubated at 37° C., 5% CO2. A compound dose-response titration was diluted in growth media, added to appropriate wells of a cell culture plate, and then incubated at 37° C., 5% CO2 for 2 hours.

Assay [2] concerns the target His-tagged KRAS G12D protein (Homo sapiens, UniProt P01116, G12D). Description: biochemical.
Protocol: The plate was incubated for 30 minutes at room temperature. Biotinylated KRPep-2d substrate (Amgen) was diluted to nM in Assay Buffer and 2 μL was added to all wells and incubated for 1 hour at room temperature. Detection Reagent (0.4 nM LANCE Eu-W1024 Anti-6×His (Perkin Elmer AD0401), 5 nM streptavidin-d2 (Cisbio 610SADLA)) was prepared in Assay Buffer, then 4 µL was added to the plate and incubated for 1 hour at room temperature.
The mark [3] stands for this setting: Homo sapiens, ASPC1, 2 h, read-out: 2 h p-ERK (AsPC-1 cells), IC50, AsPC-1 cells, 2 h compound treatment.

Sequence of His-tagged KRAS G12D protein (P01116 1-188 isoform P01116-2 G12D): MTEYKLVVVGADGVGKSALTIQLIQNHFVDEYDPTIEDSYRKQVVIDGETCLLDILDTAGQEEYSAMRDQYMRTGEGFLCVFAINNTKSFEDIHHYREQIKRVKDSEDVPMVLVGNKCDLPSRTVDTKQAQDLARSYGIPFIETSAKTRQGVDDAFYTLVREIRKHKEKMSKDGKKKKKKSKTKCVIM

As to `CCc1c(F)ccc2cc(O)cc(-c3ncc4c(N5CCC[C@](C)(CO)C5)nc(OC[C@@]56CCCN5C[C@H](F)C6)nc4c3F)c12` [Example 66, 5-Ethyl-6-fluoro-4-(8-fluoro-2-(((2R,7aS)-2-fluorotetrahydro-1H-pyrrolizin-7a(5H)-yl)methoxy)-4-((S)-3-(hydroxymethyl)-3-methylpiperidin-1-yl)pyrido[4,3-d]pyrimidin-7-yl)naphthalen-2-ol], the results for the IC50 in assay [1] (setting [3]) and in assay [2] were 754 nM and 18 nM, respectively.
With `CCc1c(F)ccc2cc(O)cc(-c3ncc4c(N5CC(C(N)=O)C5)nc(OC[C@@]56CCCN5C[C@H](F)C6)nc4c3F)c12` [Example 88, 1-(7-(8-Ethyl-7-fluoro-3-hydroxynaphthalen-1-yl)-8-fluoro-2-(((2R,7aS)-2-fluorotetrahydro-1H-pyrrolizin-7a(5H)-yl)methoxy)pyrido[4,3-d]pyrimidin-4-yl)azetidine-3-carboxamide], the values for the IC50 in assay [1] (setting [3]) and in assay [2] were over 10000 nM and 6 nM, respectively.
The matching figures for `C[C@@]1(O)CCCN(c2nc(OC[C@@]34CCCN3C[C@H](F)C4)nc3c(F)c(-c4cc(O)cc5cccc(C6CC6)c45)ncc23)C1` [Example 167, (R)-1-(7-(8-Cyclopropyl-3-hydroxynaphthalen-1-yl)-8-fluoro-2-(((2R,7aS)-2-fluorotetrahydro-1H-pyrrolizin-7a(5H)-yl)methoxy)pyrido[4,3-d]pyrimidin-4-yl)-3-methylpiperidin-3-ol]: 12 nM and 2 nM.
The matching figures for `Oc1cc(-c2ncc3c(N4CCCCCC4)nc(OC[C@@]45CCCN4C[C@H](F)C5)nc3c2F)c2c(F)c(F)ccc2c1` [Example 166, 4-(4-(Azepan-1-yl)-8-fluoro-2-(((2R,7aS)-2-fluorotetrahydro-1H-pyrrolizin-7a(5H)-yl)methoxy)pyrido[4,3-d]pyrimidin-7-yl)-5,6-difluoronaphthalen-2-ol]: 94 nM and 3 nM.
As for `C#Cc1c(F)ccc2cc(O)cc(-c3ncc4c(N5CCCC(O)(C(F)F)C5)nc(OC[C@@]56CCCN5C[C@H](F)C6)nc4c3F)c12` (single isomer, unassigned) [Example 41], the figures for the IC50 in assay [1] (setting [3]) and in assay [2] were 25 nM and 1 nM, respectively.
For `CCc1c(F)ccc2cc(O)cc(-c3ncc4c(N5CCCC(O)CC5)nc(OC[C@@]56CCCN5C[C@H](F)C6)nc4c3F)c12` (stereo partly drawn) [Example 141, 1-(7-(8-Ethyl-7-fluoro-3-hydroxynaphthalen-1-yl)-8-fluoro-2-(((2R,7aS)-2-fluorotetrahydro-1H-pyrrolizin-7a(5H)-yl)methoxy)pyrido[4,3-d]pyrimidin-4-yl)azepan-4-ol] the same measures were 198 nM and 4 nM.
Turning to `CCc1c(F)ccc2cc(O)cc(-c3ncc4c(N5CCCCC[C@H]5C)nc(OC[C@@]56CCCN5C[C@H](F)C6)nc4c3F)c12` [Example 80, 5-Ethyl-6-fluoro-4-(8-fluoro-2-(((2R,7aS)-2-fluorotetrahydro-1H-pyrrolizin-7a(5H)-yl)methoxy)-4-((R)-2-methylazepan-1-yl)pyrido[4,3-d]pyrimidin-7-yl)naphthalen-2-ol], the IC50 in assay [1] (setting [3]) was determined as 253 nM; in assay [2] it was 2 nM.
The matching figures for `CCc1c(F)ccc2cc(O)cc(-c3ncc4c(N5CCC[C@@](C)(CO)C5)nc(OC[C@@]56CCCN5C[C@H](F)C6)nc4c3F)c12` [Example 67, 5-Ethyl-6-fluoro-4-(8-fluoro-2-(((2R,7aS)-2-fluorotetrahydro-1H-pyrrolizin-7a(5H)-yl)methoxy)-4-((R)-3-(hydroxymethyl)-3-methylpiperidin-1-yl)pyrido[4,3-d]pyrimidin-7-yl)naphthalen-2-ol]: 816 nM and 19 nM.
Consider `CCc1c(F)ccc2cc(O)cc(-c3ncc4c(N5CCCC(S(C)(=O)=O)C5)nc(OC[C@@]56CCCN5C[C@H](F)C6)nc4c3F)c12` (stereo partly drawn) [Example 84, 5-Ethyl-6-fluoro-4-(8-fluoro-2-(((2R,7aS)-2-fluorotetrahydro-1H-pyrrolizin-7a(5H)-yl)methoxy)-4-(3-(methylsulfonyl)piperidin-1-yl)pyrido[4,3-d]pyrimidin-7-yl)naphthalen-2-ol], for which the IC50 is 1290 nM in assay [1] (setting [3]) and 5 nM in assay [2].
The matching figures for `CCc1c(F)ccc2cc(O)cc(-c3ncc4c(N5CCC=CCC5)nc(OC[C@@]56CCCN5C[C@H](F)C6)nc4c3F)c12` [Example 139, 5-Ethyl-6-fluoro-4-(8-fluoro-2-(((2R,7aS)-2-fluorotetrahydro-1H-pyrrolizin-7a(5H)-yl)methoxy)-4-(2,3,6,7-tetrahydro-1H-azepin-1-yl)pyrido[4,3-d]pyrimidin-7-yl)naphthalen-2-ol]: 116 nM and 5 nM.
Regarding `CCc1c(F)ccc2cc(O)cc(-c3ncc4c(N5C[C@H](N)CC(F)(F)C5)nc(OC[C@@]56CCCN5C[C@H](F)C6)nc4c3F)c12` [Example 140, 4-(4-((R)-5-Amino-3,3-difluoropiperidin-1-yl)-8-fluoro-2-(((2R,7aS)-2-fluorotetrahydro-1H-pyrrolizin-7a(5H)-yl)methoxy)pyrido[4,3-d]pyrimidin-7-yl)-5-ethyl-6-fluoronaphthalen-2-ol], the IC50 in assay [1] (setting [3]) is 81 nM; in assay [2], 3 nM.
The matching figures for `CCc1c(F)ccc2cc(O)cc(-c3ncc4c(N5CC(CS(N)(=O)=O)C5)nc(OC[C@@]56CCCN5C[C@H](F)C6)nc4c3F)c12` [Example 82, (1-(7-(8-Ethyl-7-fluoro-3-hydroxynaphthalen-1-yl)-8-fluoro-2-(((2R,7aS)-2-fluorotetrahydro-1H-pyrrolizin-7a(5H)-yl)methoxy)pyrido[4,3-d]pyrimidin-4-yl)azetidin-3-yl)methanesulfonamide]: over 10000 nM and 33 nM.
For `CCc1c(F)ccc2cc(O)cc(-c3ncc4c(N5CCC(C(N)=O)C5)nc(OC[C@@]56CCCN5C[C@H](F)C6)nc4c3F)c12` (stereo partly drawn) [Example 3, 1-(7-(8-Ethyl-7-fluoro-3-hydroxynaphthalen-1-yl)-8-fluoro-2-(((2R,7aS)-2-fluorotetrahydro-1H-pyrrolizin-7a(5H)-yl)methoxy)pyrido[4,3-d]pyrimidin-4-yl)pyrrolidine-3-carboxamide] the same measures were over 10000 nM and 9 nM.
Regarding `C#Cc1c(F)ccc2cc(O)cc(-c3ncc4c(N5CC6CC(O)C(C6)C5)nc(OC[C@@]56CCCN5C[C@H](F)C6)nc4c3F)c12` (single isomer, unassigned) [Example 27], the half-inhibitory concentration (IC50) turned out to be 1030 nM in assay [1] (read-out: 2 h p-ERK (AsPC-1 cells), IC50, AsPC-1 cells, 2 h compound treatment) and 6 nM in assay [2].
Consider `CCc1c(F)ccc2cc(O)cc(-c3ncc4c(N5CC(CC(N)=O)C5)nc(OC[C@@]56CCCN5C[C@H](F)C6)nc4c3F)c12` [Example 8, 2-(1-(7-(8-Ethyl-7-fluoro-3-hydroxynaphthalen-1-yl)-8-fluoro-2-(((2R,7aS)-2-fluorotetrahydro-1H-pyrrolizin-7a(5H)-yl)methoxy)pyrido[4,3-d]pyrimidin-4-yl)azetidin-3-yl)acetamide], for which the half-maximal inhibitory concentration (IC50) is over 10000 nM in assay [1] (setting [3]) and 82 nM in assay [2].
In the case of `CCc1cccc2cc(O)cc(-c3ncc4c(N5CCC[C@@](C)(O)C5)nc(OC[C@@]56CCCN5C[C@H](F)C6)nc4c3F)c12` [Example 58, (R)-1-(7-(8-Ethyl-3-hydroxynaphthalen-1-yl)-8-fluoro-2-(((2R,7aS)-2-fluorotetrahydro-1H-pyrrolizin-7a(5H)-yl)methoxy)pyrido[4,3-d]pyrimidin-4-yl)-3-methylpiperidin-3-ol], the IC50 in assay [1] (setting [3]) worked out at 9 nM; in assay [2], 1 nM.
